Assay results from patent US6486171B2, “Piperidine compounds” (Les Laboratoires Servier, priority 1999, dated 2002).
Where a name gives a salt, the structure may show the parent alone. One block for each molecule: values may come before it.

Experiments:
serotonin level = test: Microdialysis experiment in the rat (frontal cortex); assay type: in vivo; details: 10 mg/kg subcutaneously, cingulate frontal cortex dialysate
Description: Rats are anaesthetised with pentobarbital (60 mg/kg i.p.). They are placed in a Kopf stereotactic device and the cannula guide is implanted in the cingulate frontal cortex in accordance with the coordinates described in the Paxinos and Watson atlas (1982) as follows: AP=+2.2; L=±0.6; DV=−0.2. The rats are placed in separate cages and are not used in dialysis until 5 days later. […] The probe is perfused at a flow rate of 1 μl/min. with a solution of 147.2 mM NaCl, 4 mM KCl and 2.3 mM CaCl2 adjusted to pH 7.3 with a phosphate buffer (0.1 M). Two hours after implantation, samples are collected every 20 minutes for 4 hours. Three baseline samples are taken before administration of the products to be tested. The rats are left in their individual cages for the whole of the experiment. When the experiment is finished, the rats are decapitated and the brain is removed and frozen in isopentane. […]
The simultaneous quantification of dopamine, norepinephrine and serotonin is carried out as follows: 20 μl dialysis samples are each diluted with 20 μl of mobile phase (NaH2PO4: 75 mM; EDTA: 20 μM; sodium 1-decanesulphonate: 1 mM; methanol: 17.5%; triethylamine: 0.01%; pH: 5.7) and 33 μl samples are analysed by HPLC using a reverse phase column thermostatically maintained at 45° C. and quantified by means of a coulometric detector. […]

[1] = test system: marble-burying behaviour of mice; test: Marble-burying test in mice; assay type: in vivo; details: male NMRI mice, 30 minutes' exploration
Text: This test enables evaluation of the capacity of pharmacological agents to inhibit the spontaneous marble-burying behaviour of mice, the inhibition being predictive of antidepressant and/or anti-impulsive action. Male mice of the NMRI strain (Iffa-Credo, 1'Arbresle, France) weighing from 20 to 25 g on the day of the experiment are placed individually in Macrolon boxes (30×18×19 cm) containing 5 cm of sawdust and covered with a perforated plexiglass plate. Twenty four “tiger's eye” glass marbles are evenly distributed on the sawdust at the periphery of the box. At the end of 30 minutes' free exploration, the animals are removed from the box and the number of buried marbles is counted.

5-HT1A receptors = target: T1, 5-HT1A receptors (Homo sapiens, UniProt P08908); test: Affinity for 5-HT1A receptors, [3H]-8-OH-DPAT competition; assay type: binding; details: membranes from CHO cells transfected with 5HT1A receptor, read-out: pKi, 5-HT1A receptor (converted)
T1 construct: expressed in transfected cells; host or cells: CHO cells
T1 sequence (P08908 1-422): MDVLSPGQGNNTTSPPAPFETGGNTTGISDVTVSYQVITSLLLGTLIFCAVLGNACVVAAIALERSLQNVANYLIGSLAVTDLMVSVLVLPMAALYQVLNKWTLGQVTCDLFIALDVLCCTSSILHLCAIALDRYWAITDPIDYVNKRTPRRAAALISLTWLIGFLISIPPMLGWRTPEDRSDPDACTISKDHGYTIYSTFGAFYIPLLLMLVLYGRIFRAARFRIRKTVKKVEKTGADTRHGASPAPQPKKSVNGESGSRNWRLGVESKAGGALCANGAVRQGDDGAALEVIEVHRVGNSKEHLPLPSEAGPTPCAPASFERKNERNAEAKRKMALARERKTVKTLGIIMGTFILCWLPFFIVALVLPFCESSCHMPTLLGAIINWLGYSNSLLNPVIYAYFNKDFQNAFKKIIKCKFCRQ
Description: The affinity was determined by competition experiments using [^3H]-8-OH-DPAT (NEN, Les Ulis, France). The membranes, prepared from CHO cells transfected with 5HT1A receptor, were prepared as described in Neuropharmacol., 1997, 36, 451-459. The membranes were incubated in triplicate for two and a half hours at 25° C. with 0.4 nM [^3H]-8-OH-DPAT and cold ligand in a final volume of 1.0 ml. The incubation buffer contains 50 mM HEPES-NaOH (pH 7.4) and 5 mM MgCl2. The non-specific binding is determined using 10 μM 5-HT. At the end of the incubation, the incubation medium is filtered through filters impregnated with 0.1% polyethyleneimine and washed three times with 5 ml of cooled buffer. The radioactivity retained on the filters is determined by liquid scintillation counting. The binding isotherms are analysed by non-linear regression to determine the IC50 values. Those values are converted into a dissociation constant (Ki) using the Cheng-Prusoff equation: […]
wherein L is the concentration of [^3H]-8-OH-DPAT and Kd is the dissociation constant of [^3H]-8-OH-DPAT from the 5HT1A receptor (0.65 nM). The results are expressed in pKi.

serotonin reuptake sites = target: T2, serotonin reuptake sites (Rattus norvegicus, UniProt P31652); test: Affinity for serotonin reuptake sites, [3H]-paroxetine competition; assay type: binding; details: rat frontal cortex membranes, read-out: pKi, serotonin reuptake sites (converted)
T2 construct: The membranes are prepared from rat frontal cortex; from tissue; host or cells: rat frontal cortex membranes
T2 sequence (P31652 whole entry): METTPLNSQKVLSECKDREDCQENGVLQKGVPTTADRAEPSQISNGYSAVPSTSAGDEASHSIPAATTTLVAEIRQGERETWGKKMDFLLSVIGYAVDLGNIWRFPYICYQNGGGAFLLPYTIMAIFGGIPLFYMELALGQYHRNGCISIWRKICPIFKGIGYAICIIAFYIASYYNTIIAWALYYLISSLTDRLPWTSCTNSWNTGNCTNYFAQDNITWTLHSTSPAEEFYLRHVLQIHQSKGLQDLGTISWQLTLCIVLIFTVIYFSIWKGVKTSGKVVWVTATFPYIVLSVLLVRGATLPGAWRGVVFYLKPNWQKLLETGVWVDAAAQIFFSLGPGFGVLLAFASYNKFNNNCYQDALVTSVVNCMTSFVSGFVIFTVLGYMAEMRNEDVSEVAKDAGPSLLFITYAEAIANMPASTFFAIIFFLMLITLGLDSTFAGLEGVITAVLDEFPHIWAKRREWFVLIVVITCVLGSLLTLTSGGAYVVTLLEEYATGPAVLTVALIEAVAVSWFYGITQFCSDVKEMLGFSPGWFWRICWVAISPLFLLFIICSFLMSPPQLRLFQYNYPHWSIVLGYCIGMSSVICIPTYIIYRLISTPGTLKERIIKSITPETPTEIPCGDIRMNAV
Description: The affinity was determined by competition experiments using [^3H]-paroxetine (NEN, Les Ulis, France). The membranes are prepared from rat frontal cortex and are incubated in triplicate for 2 hours at 25° C. with 1.0 nM [^3H]-paroxetine and cold ligand in a final volume of 0.4 ml. The incubation buffer contains […] TRIS-HCl (pH 7.4), 120 mM NaCl and 5 mM KCl. The non-specific binding is determined using 10 μM citalopram. At the end of the incubation, the incubation medium is filtered and washed three times with 5 ml of cooled buffer. The radioactivity retained on the filters is determined by liquid scintillation counting. The binding isotherms are analysed by non-linear regression to determine the IC50 values. Those values are converted into a dissociation constant (Ki) using the Cheng-Prusoff equation: […]
wherein L is the concentration of [^3H]-paroxetine and Kd is the dissociation constant of [^3H]-paroxetine from the serotonin reuptake site (0.13 nM). The results are expressed in pKi.

[2] = test system: aggressiveness in isolated mice; test: Test of aggressiveness in isolated mice; assay type: in vivo; details: male CD mice, treatment 30 minutes before test
Text: This test allows the evaluation of the intraspecies anti-aggressive activity of a product in mice that have been kept in isolation for several months. The test uses male CD mice (Charles River) weighing from 22 to 25 g. On their arrival, the animals are isolated in individual opaque black cages (23×14×13 cm) with a grill lid, and are housed for a prolonged period (approximately six months) in the experimentation room. The selection of aggressive pairs of mice that will be used for an extended period in the study commences after the animals have been isolated for one month. Once or twice per week a mouse from another cage (intruder) is placed in the cage of a (resident) mouse and the two animals are observed to see if they attack one another (sniffing, pursuing, nibbling, biting) during that trial. At the end of the trial (maximum duration 10 minutes), each mouse is isolated again in its own cage. If attacks have occurred, the same pair will be tested again in the next trial; if there have been no attacks, each mouse of that pair will be placed in the presence of another mouse in the subsequent trial. Thus, in the course of successive trials carried out at a rate of 1 or 2 per week, definitive pairs of mice that will be used for the experiments are selected. […] The latent period (in seconds) of the first attack and the number and total duration (in seconds) of the attacks are recorded. […]

melting point: 175 to 181 °C
SMILES: c1ccc2cc(CCN3CCN(c4nccc5ccoc45)CC3)ccc2c1 (as salt: fumarate) [Example 30, 7-{4-[2-(2-Naphthyl)ethyl]-1-piperazinyl}furo[2,3-c]pyridine]

Ki (5-HT1A receptors): < 31.6 nM
Ki (serotonin reuptake sites): < 31.6 nM
SMILES: c1ccc2c(CCN3CCC(c4nccc5occc45)CC3)cccc2c1 [Example 7, 4-{1-[2-(1-Naphthyl)ethyl]-4-piperidinyl}furo[3,2-c]pyridine]
increase of the level of serotonin (maximum % of the effect compared with the baseline level defined as 0%) (serotonin level): 140.5±15.2%
Marble-burying in mice, ID50 [1]: 1.64 mg/kg s.c.
Inhibitory Dose 50, aggressiveness in isolated mice [2]: less than 1.5 mg/kg i.p.

SMILES: c1cc2occc2c(N2CCN(CCc3ccc4c(c3)CCO4)CC2)n1 [Example 11, 4-{4-[2-(2,3-Dihydrobenzofuran-5-yl)ethyl]-1-piperazinyl}furo[3,2-c]pyridine]
Marble-burying in mice, ID50 [1]: 0.94 mg/kg s.c.

SMILES: CNCCC(Oc1ccc(C(F)(F)F)cc1)c1ccccc1 (centres unmarked) [fluoxetine, reference compound]
Marble-burying in mice, ID50 [1]: 8.03 mg/kg s.c.
